In BindingDB's records for doi:10.1073/pnas.0710981105 (Merck Research Laboratories, 2008):

Biological target: T1, Bile acid receptor (Homo sapiens, UniProt Q96RI1)
T1 sequence (Q96RI1 whole entry): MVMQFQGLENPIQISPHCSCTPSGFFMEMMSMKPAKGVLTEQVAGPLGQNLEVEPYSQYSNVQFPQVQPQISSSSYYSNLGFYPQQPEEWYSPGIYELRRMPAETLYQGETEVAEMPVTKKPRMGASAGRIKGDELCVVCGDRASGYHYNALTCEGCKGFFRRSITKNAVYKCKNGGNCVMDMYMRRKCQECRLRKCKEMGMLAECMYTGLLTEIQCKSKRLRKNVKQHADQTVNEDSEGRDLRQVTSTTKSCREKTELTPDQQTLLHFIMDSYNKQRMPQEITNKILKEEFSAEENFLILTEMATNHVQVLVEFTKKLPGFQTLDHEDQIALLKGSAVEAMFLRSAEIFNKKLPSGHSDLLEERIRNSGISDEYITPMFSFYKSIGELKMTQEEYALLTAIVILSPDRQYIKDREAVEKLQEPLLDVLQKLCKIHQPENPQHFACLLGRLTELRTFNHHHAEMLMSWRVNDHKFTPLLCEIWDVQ
Experiment: HTRF Coactivator Recruitment Assay
Conditions: pH 7; 4 °C
Experimental: To each well of a 96-well assay plate, assay buffer was added containing purified GST-FXR, Eu-labeled anti-GST antibody (Perkin-Elmer), streptavidin-XL665 (Packard Instruments), biotin-tagged SRC-1 fragment. The binding reaction was initiated by the addition of compound.

Row | EC50 [nM] | SMILES
1 | 16.9 | C[C@]12CCC(C(=O)O)=CC1=CCC1C2CC[C@@]2(C)C1CC[C@@H]2C(=O)c1ccc(O)cc1 (some centres not stated) [MFA-1]
2 | 509 | C[C@]12CCC(C(=O)O)=CC1=CCC1C2CC[C@@]2(C)C1CC[C@@H]2C(=O)c1ccccc1 (some centres not stated) [MFA-2]
